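Cells were grown in 96-well plates and exposed to each compound for 48 hours at five concentrations; endpoints were interpolated linearly between bracketing concentrations, or set to the highest concentration if not reached. GI50 marks 50% less growth.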 The source made the active and inactive calls. Rule as the data show it: active = GI50 up to about 1.1 µM and inactive = higher.
Experiments:
Test in all cases: inhibition of tumour cell growth, NCI panel, 48 h
[1] = test system: SK-MEL-5
[2] = test system: SK-MEL-2
[3] = test system: SF-268
[4] = test system: SNB-75
[5] = test system: IGROV-1
[6] = test system: KM-20L2
[7] = test system: SK-MEL-28
[8] = test system: HCT-15
[9] = test system: ACHN
[10] = test system: RXF 393
[11] = test system: HOP-92
[12] = test system: A549
[13] = test system: UO-31
[14] = test system: KM12
[15] = test system: HOP-62
[16] = test system: OVCAR-5
[17] = test system: NCI-H522
[18] = test system: BT-549
[19] = test system: PC-3
[20] = test system: Hs-578T

Structure (SMILES)	GI50 [1]	GI50 [2]	GI50 [3]	GI50 [4]	GI50 [5]	GI50 [6]	GI50 [7]	GI50 [8]	GI50 [9]	GI50 [10]	GI50 [11]	GI50 [12]	GI50 [13]	GI50 [14]	GI50 [15]	GI50 [16]	GI50 [17]	GI50 [18]	GI50 [19]	GI50 [20]
CC(=O)NC(CCCNC(=O)OCc1ccccc1)C(=O)NCc1ccccc1 (configuration not stated)	> 100 µM (inactive)	> 100 µM (inactive)	> 100 µM (inactive)	41.8 µM (inactive)	> 100 µM (inactive)	> 100 µM (inactive)	> 100 µM (inactive)	> 100 µM	> 100 µM (inactive)	> 100 µM (inactive)	> 100 µM (inactive)	> 100 µM (inactive)	> 100 µM (inactive)	> 100 µM (inactive)	> 100 µM (inactive)	> 100 µM (inactive)	> 100 µM (inactive)			
C=C1CC2C(=O)N(c3ccccc3)C(=O)C2CC1n1[nH]c(=O)n(Cc2ccccc2)c1=O (configuration not stated)	> 100 µM (inactive)	> 100 µM (inactive)	> 100 µM (inactive)	> 100 µM (inactive)	> 100 µM (inactive)	> 100 µM (inactive)	> 100 µM (inactive)	> 100 µM	> 100 µM (inactive)	> 100 µM (inactive)	> 100 µM (inactive)	> 100 µM (inactive)	> 100 µM (inactive)	> 100 µM (inactive)	> 100 µM (inactive)	> 100 µM (inactive)	> 100 µM (inactive)			
S=c1c2ccccc2c(=S)n2n1CC=CC2	> 100 µM (inactive)	> 100 µM (inactive)	> 100 µM (inactive)	68.1 µM (inactive)	> 100 µM (inactive)	> 100 µM (inactive)	> 100 µM (inactive)	> 100 µM	> 100 µM (inactive)	> 100 µM (inactive)	> 100 µM (inactive)	> 100 µM (inactive)	> 100 µM (inactive)	> 100 µM (inactive)		> 100 µM (inactive)	75.7 µM (inactive)			
CCCCCCc1cc2c(C)c(C)c(=O)oc2cc1OCCCOc1cc2oc(=O)c(C)c(C)c2cc1CCCCCC	> 100 µM (inactive)	> 100 µM (inactive)	> 100 µM (inactive)		> 100 µM (inactive)	> 100 µM (inactive)	> 100 µM (inactive)	> 100 µM		43.4 µM (inactive)	> 100 µM (inactive)	> 100 µM (inactive)	> 100 µM (inactive)	> 100 µM (inactive)	> 100 µM (inactive)	> 100 µM (inactive)	> 100 µM (inactive)			
COc1ccccc1NC(=O)C(=O)C1C(=O)Nc2ccccc2[S+]1[O-] (configuration not stated)	> 100 µM (inactive)	> 100 µM (inactive)	> 100 µM (inactive)	> 100 µM (inactive)	> 100 µM (inactive)	> 100 µM (inactive)	> 100 µM (inactive)	> 100 µM	> 100 µM (inactive)	> 100 µM (inactive)		> 100 µM (inactive)	> 100 µM (inactive)	> 100 µM (inactive)	> 100 µM (inactive)	> 100 µM (inactive)	> 100 µM (inactive)			
Cc1cc(=O)oc2c1cc(OCC(=O)OCCN1CCCCC1)c1occ(C)c12	> 100 µM (inactive)	> 100 µM (inactive)		> 100 µM (inactive)		> 100 µM (inactive)	> 100 µM (inactive)	> 100 µM	> 100 µM (inactive)	> 100 µM (inactive)	> 100 µM (inactive)	> 100 µM (inactive)	> 100 µM (inactive)	> 100 µM (inactive)		> 100 µM (inactive)				
N#CC1CCCCC1NC1(C#N)CCCCC1 (configuration not stated)	> 100 µM (inactive)	> 100 µM (inactive)	> 100 µM (inactive)	> 100 µM (inactive)	> 100 µM (inactive)	> 100 µM (inactive)	> 100 µM (inactive)	> 100 µM		> 100 µM (inactive)		> 100 µM (inactive)	> 100 µM (inactive)	> 100 µM (inactive)	> 100 µM (inactive)		> 100 µM (inactive)			
COC(=O)C(C(=O)C(=O)Nc1ccccc1C)c1nc2ccc([N+](=O)[O-])cc2nc1O (configuration not stated)	> 100 µM (inactive)	> 100 µM (inactive)	> 100 µM (inactive)	> 100 µM (inactive)	> 100 µM (inactive)	> 100 µM (inactive)	> 100 µM (inactive)	> 100 µM	> 100 µM (inactive)	> 100 µM (inactive)		> 100 µM (inactive)	> 100 µM (inactive)	> 100 µM (inactive)	> 100 µM (inactive)	> 100 µM (inactive)	47.3 µM (inactive)			
N/N=C(\c1nc2ccc(Cl)cc2nc1O)C(O)c1ccc(Cl)c(Cl)c1 (configuration not stated)	> 100 µM (inactive)	> 100 µM (inactive)	> 100 µM (inactive)	31 µM (inactive)	> 100 µM (inactive)	> 100 µM (inactive)	> 100 µM (inactive)	> 100 µM	> 100 µM (inactive)	> 100 µM (inactive)	> 100 µM (inactive)	> 100 µM (inactive)	> 100 µM (inactive)	70.5 µM (inactive)	> 100 µM (inactive)	> 100 µM (inactive)	> 100 µM (inactive)			
Cc1ccc(S(=O)(=O)N/N=C(\c2nc3ccc([N+](=O)[O-])cc3nc2O)C(O)c2ccccc2Cl)cc1 (configuration not stated)	55.3 µM (inactive)	> 100 µM (inactive)	> 100 µM (inactive)	> 100 µM (inactive)	> 100 µM (inactive)	> 100 µM (inactive)	> 100 µM (inactive)	78 µM	> 100 µM (inactive)		> 100 µM (inactive)	> 100 µM (inactive)	> 100 µM (inactive)	93.8 µM (inactive)	> 100 µM (inactive)	> 100 µM (inactive)	6.93 µM (inactive)			
Cc1ccc2nc3c(C(=O)NCCN(C)C)cccc3nc2c1	4.6 µM (inactive)	2.76 µM (inactive)		5.48 µM (inactive)	7.03 µM (inactive)	3.53 µM (inactive)	4.7 µM (inactive)	2.9 µM	1.91 µM (inactive)	3.56 µM (inactive)	2.38 µM (inactive)	4.61 µM (inactive)		3.94 µM (inactive)	3.85 µM (inactive)	6.34 µM (inactive)	8.81 µM (inactive)			
C/C=C1\CN2CCc3c([nH]c4ccccc34)C2CC1C(=O)OC (configuration not stated)	> 322 µM (inactive)	> 322 µM (inactive)	> 322 µM (inactive)		> 322 µM (inactive)	> 322 µM (inactive)	> 322 µM (inactive)	> 322 µM	> 322 µM (inactive)	> 322 µM (inactive)	169 µM (inactive)	> 322 µM (inactive)		> 322 µM (inactive)	> 322 µM (inactive)	> 322 µM (inactive)	287 µM (inactive)			
CCC1(OC(C)=O)C(=O)OCc2c1cc1n(c2=O)Cc2cc3ccccc3nc2-1 (configuration not stated)	1.23 µM (inactive)	> 80 µM (inactive)	0.528 µM (active)	1.48 µM (inactive)	7.52 µM (inactive)	7.01 µM (inactive)	14 µM (inactive)	12.3 µM	0.455 µM (active)	2.64 µM (inactive)	24.8 µM (inactive)	1.16 µM (inactive)	1 µM (active)	7.6 µM (inactive)	0.316 µM (active)	2.37 µM (inactive)	1.19 µM (inactive)			
O=c1/c(=C/c2ccco2)sc2nc3ccccc3n12	> 10 µM (inactive)	> 10 µM (inactive)	> 10 µM (inactive)	27 µM (inactive)	> 10 µM (inactive)	> 10 µM (inactive)	> 10 µM (inactive)	> 10 µM	> 10 µM (inactive)	63.5 µM (inactive)	> 10 µM (inactive)	> 10 µM (inactive)	> 10 µM (inactive)	> 100 µM (inactive)	> 100 µM (inactive)	> 10 µM (inactive)	> 10 µM (inactive)			
COC(=O)CC[C@@H](NC(=O)C(C)NC(=O)COC1C(O)C(COC(=O)CCCCCCCCCCNC(=O)c2ccc([N+](=O)[O-])c3[nH]c4cc(Br)ccc4c(=O)c23)OC(OCc2ccccc2)C1NC(C)=O)C(N)=O (some centres not stated)	68.7 µM (inactive)	95.1 µM (inactive)	57.4 µM (inactive)	> 100 µM (inactive)	19.5 µM (inactive)	> 100 µM (inactive)	> 100 µM (inactive)	> 100 µM	> 100 µM (inactive)	56.6 µM (inactive)	37.1 µM (inactive)	> 100 µM (inactive)	> 100 µM (inactive)	> 100 µM (inactive)	83.8 µM (inactive)	37.3 µM (inactive)	32.7 µM (inactive)			
CC(=O)OC[C@@H](COC(=O)/C=C/c1ccc(O)cc1)OC1OC(CO)C(O)C(O)C1O (some centres not stated)	> 100 µM (inactive)	> 100 µM (inactive)	> 75.5 µM (inactive)	> 100 µM (inactive)	> 100 µM (inactive)	> 100 µM (inactive)	> 100 µM (inactive)	> 100 µM	> 100 µM (inactive)	> 100 µM (inactive)	> 100 µM (inactive)	> 100 µM (inactive)	> 100 µM (inactive)	> 100 µM (inactive)	> 100 µM (inactive)	> 100 µM (inactive)	> 100 µM (inactive)			
Cc1[nH]c(=O)[nH]c(=O)c1N(CCF)CCCl [FLUORODOPAN]	196 µM (inactive)	432 µM (inactive)	290 µM (inactive)		441 µM (inactive)	359 µM (inactive)	420 µM (inactive)		190 µM (inactive)	219 µM (inactive)	109 µM (inactive)	265 µM (inactive)		429 µM (inactive)	318 µM (inactive)	483 µM (inactive)	143 µM (inactive)	344 µM (inactive)	363 µM (inactive)	635 µM (inactive)
